Ends that are not written are not given here.
Tests used:
[1] = Zeta potential of gold nanoparticles; format: physicochemical; details: after centrifugation and redispersion in HEPES, room temperature
Experimental: The synthesized gold nanoparticle solutions were centrifuged at 14000 rpm followed by washing with mill-Q water to remove unreacted peptides and HEPES. The centrifuged gold nanoparticles were frozen and fridge dried at 223 K using . . . Thermogravimetric analysis (TGA) of peptide capped gold nanoparticles and gold nanoparticles synthesized without peptides was performed using over a temperature range of 30-600° C. at a heating rate of 10° C./min in presence of N2 gas. The binding of peptide on gold nanoparticle surface was analyzed, preferably by FTIR spectroscopy in ATR mode using JASCO spectrophotometer at 4 cm-1 resolutions with 64 scans. Zeta (ζ) potential of the synthesized gold nanoparticles after centrifugation and redispersion in HEPES were measured, preferably, using Brukerheaven instrument at room temperature.

S. aureus = experiment: Antimicrobial activity testing of peptide capped gold nanoparticles and peptide in bacterial suspension (colony count); format: cell-based; details: 10 μg/mL, after 4 hr of incubation, 10% human serum
Experimental: (§1) S. aureus and E. coli were grown at 37° C. and maintained on LB plates (preferably, Luria-Bertani broth with 1.5% agar). Bacteria were also grown in LB media for overnight at 37° C. and cell counts were quantified by OD 600 measurements. Different amounts of peptide capped gold nanoparticles, peptide (5-10 μg/mL) and HEPES reduced gold nanoparticles (10 μg/mL) were added into bacterial suspensions ([…]) in presence of 10% human serum and incubated for 4 h at 37° C. 100 μL aliquots were taken out from the respective suspensions at 2 h intervals and diluted in PBS buffer to give […] and plated on LB agar plates followed by incubation at 37° C. Colonies were counted after 24 h of incubation. In another experiments, citric acid reduced gold nanoparticles were functionalized with 1 mg/mL mPEG-thiol (5 kDa). Gold nanoparticles were synthesized using citric acid as described previously (11). PEG and CMC peptide coated gold nanoparticles were incubated with 10% human serum for 2 hr at 4° C. followed by centrifugation at 14000 rpm to discard free human serum. Similarly, to study protease degradation, CMC coated gold nanoparticles and bare CMC peptides were treated with 1 mg/mL trypsin (phosphate buffer pH 8) for 2 h at 37° C. After 2 h of reaction, the nanoparticle solution was subjected to centrifugation to remove trypsin. Antimicrobial test was performed with human serum and trypsin treated peptide capped gold nanoparticles against E. coli.

E. coli = experiment: as above; format: cell-based
Experimental: as §1

HUVEC = experiment: Soluble CM peptide interaction with cells, MTT assay; format: cell-based, human; details: 24 h contact with soluble peptide
Experimental: Two human cell types such as human endothelial umbilical vein cells (HUVEC) as a model for vascularized tissues and normal dermal human fibroblasts (NDHF) one of the most common cell type present in human connective tissue were used to evaluate the cytotoxicity induced by CM peptide immobilized surfaces. HUVECs (preferably, Lonza, Cat. Number CC-2517, Walkersville, Md., USA) were cultured using endothelial growth factor-2 media (EGM-2), bullet kit media (preferably, Lonza, Cat. Number CC-3156) for at least 24 h prior to further use. Passages below six were used for all experiments.
HUVEC and NDHF cells were cultured as previously mentioned and platted at a density of 4.2×10^3 cells/cm2 in 24-well plates. Cells were allowed to grow 24 h prior to any experiments performed. Different concentrations of CM peptide solutions (50, 30, 20, 10, 5, 2.5 and 1 μg/mL) were incubated with both cells for 24 hr to evaluate the cytotoxicity effect of CM peptides using MTT cell metabolic activity assay.
Initially cells were washed with warm phosphate buffer saline (PBS). […] Absorbance was measured at 540 nm with reference to 670 nm in a UV-visible spectrophotometer (SynergyMx from Biotek Instruments, Winooski, Vt., United States) (I don't understand by reference).

| Substance | ζ potential (mV) [1] | killing of bacteria (S. aureus) | killing of bacteria (E. coli; 10 μg/mL, after 4 hr of incubation, 10% human serum) | incubation time to kill bacteria (E. coli; absence of human serum (FIG. 9)) [min] | antimicrobial activity after trypsin treatment (E. coli; treated with 1 mg/mL trypsin for 2 h at 37° C.) | concentration at which negative influence on metabolic activity was also detected (MTT) (HUVEC) [ng/mL] |
| --- | --- | --- | --- | --- | --- | --- |
| KWKLFKKIGAVLKVLC [CMC peptide, KWKLFKKIGAVLKVLC] | +23±1 mV | reduced activity | reduced activity | 60 | did not show any antimicrobial activity | – |
| Cecropin-mellitin [soluble CM peptide] | – | – | – | – | – | 1000 |
